In patent US9943522B2, “Use of cathepsin K inhibition for the treatment and/or prophylaxis of pulmonary hypertension and/or heart failure” (BAYER INTELLECTUAL PROPERTY GMBH, priority 2011, dated 2018):

What was measured:
ANP = test: Relative expression of ANP in heart right ventricle, hypoxia-induced pulmonary hypertension model (TaqMan RT-PCR); format: in vivo, guinea pig; details: hypoxia 28 days, Odanacatib infusion, compared to placebo group; FIG. 2
Method: (§1) To analyse the disease state of the animals and determine the efficacy of Odanacatib treatment, the expression of marker genes were performed. […] Due to the known correlation of increased ANP levels and disease stage in heart failure patients and animal models, the increased expression of […] seems to be correlated with pulmonary hypertension.
(§2) Guinea pig or dog tissues were pulverized by grinding with liquid nitrogen. Total RNA was extracted, DNase I digestion was performed to remove residual genomic DNA and the RNA were reverse transcribed using random hexomer primers. Quantitative TaqMan RT-PCR analysis was performed using the Applied Biosystems PRISM 7900 sequence detection system. […] Results were normalized to L32 (dog) or b-actin (guinea pig) controls, and relative expression was calculated according to the following formula: relative expression=2(20-(CT(probe)-CT(L32/b-actin))). […]
(§3) Male Dunkin Hartley guinea pigs weighing approximately 250 g were randomized to three different treatment groups (n=7-8 animals/group; control+placebo, hypoxia+placebo, hypoxia+Odanacatib). […] The heart was dissected, and the ratio of the right ventricle to left ventricle plus septum weight (RV/LV+S) was calculated as an index of right ventricular hypertrophy. The right ventricle was snap-frozen on dry ice for RNA extraction and quantitative real-time polymerase chain reaction. […]

LTBP2 = test: Relative expression of LTBP2 in heart right ventricle, hypoxia-induced pulmonary hypertension model (TaqMan RT-PCR); format: in vivo, guinea pig; details: hypoxia 28 days, Odanacatib infusion, compared to placebo group; FIG. 3
Method: as §1, §2
For relative quantitation of the mRNA distribution of LTBP2, total RNA from each sample was first reverse transcribed. […]
For relative quantitation of the distribution of LTBP2 mRNA the Applied Bioscience ABI 7900HT Sequence Detection system was used according to the manufacturer's specifications and protocols.
PCR reactions were set up to quantitate LTBP2 and the housekeeping gene b-actin. […]

CTSK = test: Relative expression of CTSK in heart right ventricle, hypoxia-induced pulmonary hypertension model (TaqMan RT-PCR); format: in vivo, guinea pig; details: hypoxia 28 days, Odanacatib infusion, compared to placebo group; FIG. 4
Method: as §1, §2, §3

[1] = test system: hypoxia-induced pulmonary hypertension in the guinea pig; test: Hypoxia-induced pulmonary hypertension in the guinea pig: right ventricular hypertrophy (RV/LV+S); format: in vivo
From the text: Chronic hypoxia is a literature described and accepted animal model for pulmonary hypertension and is described for different species (Am J Physiol Lung Cell Mol Physiol 297: L1013-L1032, 2009; J Pharmacol Sci 107, 8-14 (2008); Pharmacology & Therapeutics 92 (2001) 1-20). Acute hypoxia increases pulmonary arterial pressure through pulmonary arterial constriction. Chronic hypoxia causes more severe pulmonary hypertension through vascular architectural changes and an increase of hematocrit (Hct) in the blood. […]
The CTSK inhibitor Odanacatib was tested in a guinea pig model for pulmonary hypertension as described in the examples section. […] The heart was dissected, and the ratio of the right ventricle to left ventricle plus septum weight (RV/LV+S) was calculated as an index of right ventricular hypertrophy. The right ventricle was snap-frozen on dry ice for RNA extraction and quantitative real-time polymerase chain reaction. […]
Male Dunkin Hartley guinea pigs weighing approximately 250 g were randomized to three different treatment groups (n=7-8 animals/group; control+placebo, hypoxia+placebo, hypoxia+Odanacatib). […] The heart was dissected, and the ratio of the right ventricle to left ventricle plus septum weight (RV/LV+S) was calculated as an index of right ventricular hypertrophy. […]

CC(C)(F)C[C@H](N[C@@H](c1ccc(-c2ccc(S(C)(=O)=O)cc2)cc1)C(F)(F)F)C(=O)NC1(C#N)CC1 [Odanacatib]
expression of ANP in heart (right ventricle) under hypoxia (ANP): markedly decreased expression
expression of LTBP2 in heart (right ventricle) under hypoxia (LTBP2): markedly decreased expression
expression of CTSK in heart (right ventricle) under hypoxia (CTSK): markedly decreased expression
ratio of the right ventricle to left ventricle plus septum weight (RV/LV+S) ([1]; Mean±SEM, normobaric hypoxia (10% O2) 28 days, continuous infusion by osmotic minipump day 0-28, hypoxic placebo 0.37±0.01, normoxic control 0.28±0.01): 0.30±0.01
right ventricle weight ([1]; hypoxia-induced pulmonary hypertension animals, compared to placebo treated animals): reduction of right ventricle weight
